Data from US11407788B2, “Prostate-specific membrane antigen (PSMA) targeting peptides” (THE CURATORS OF THE UNIVERSITY OF MISSOURI, priority 2016, dated 2022).

What was measured:
[1] = system: PSMA-positive prostate cancer C4-2 cell line; assay: Apparent Kd of FAM-labeled peptides by flow cytometry in C4-2 cells; format: cell-based
LNCaP cells = assay: Competitive inhibition of peptides and their corresponding phages; settings: for competitive inhibition of peptide to its corresponding phage: peptides at 100 μM
Procedure: Competitive binding inhibition between selected phages and their encoded peptides was examined in this study. […] The bound phages were recovered and titered as described above.
It was first evaluated whether these phages bind to LNCaP cells via specific interaction with their encoding peptides. LNCaP cells were pre-incubated with the encoding peptides, followed by washing and incubation with the corresponding phages. The bound phages were then eluted and titered.

[2] = system: PSMA-positive LNCaP cells; assay: Apparent Kd of FAM-labeled peptides by flow cytometry in LNCaP cells; format: cell-based; settings: 4° C., 1 h
PSMA = PSMA (Homo sapiens, UniProt Q04609); settings: Aggarwal et al. 2006; read-out: IC50 of inhibition of PSMA enzymatic activity; cited from earlier work
PSMA, sequence (Q04609 whole entry): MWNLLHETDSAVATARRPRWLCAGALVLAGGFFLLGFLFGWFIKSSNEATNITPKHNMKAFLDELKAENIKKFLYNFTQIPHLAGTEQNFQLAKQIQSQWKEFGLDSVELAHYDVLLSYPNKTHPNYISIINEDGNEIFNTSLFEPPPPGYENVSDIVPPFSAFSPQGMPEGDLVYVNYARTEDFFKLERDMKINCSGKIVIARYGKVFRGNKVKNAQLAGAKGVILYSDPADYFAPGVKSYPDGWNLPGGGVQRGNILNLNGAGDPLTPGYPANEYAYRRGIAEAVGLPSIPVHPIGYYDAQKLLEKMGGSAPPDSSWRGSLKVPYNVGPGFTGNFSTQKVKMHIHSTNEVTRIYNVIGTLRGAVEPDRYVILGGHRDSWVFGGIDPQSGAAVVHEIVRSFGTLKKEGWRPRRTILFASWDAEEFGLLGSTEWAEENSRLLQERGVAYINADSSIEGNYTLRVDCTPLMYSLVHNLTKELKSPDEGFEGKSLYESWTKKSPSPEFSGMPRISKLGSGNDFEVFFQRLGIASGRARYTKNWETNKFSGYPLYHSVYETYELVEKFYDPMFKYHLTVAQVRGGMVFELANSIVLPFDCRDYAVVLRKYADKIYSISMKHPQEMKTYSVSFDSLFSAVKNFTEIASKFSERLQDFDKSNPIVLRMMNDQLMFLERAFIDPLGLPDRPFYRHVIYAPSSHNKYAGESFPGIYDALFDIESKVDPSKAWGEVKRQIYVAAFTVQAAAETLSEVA

With HSDNHYRPADKL the “affinity to C4-2 cells compared to LNCaP cells” value [1] was “less affinity” and the “competitive inhibition of peptide to its corresponding phage” value (LNCaP cells) was “negligible”.

Sequence KYLAYPDSVHIW has a Kd [2] of 14.4 µM.

With NRPDSAQFWLHH the “competitive inhibition of peptide to its corresponding phage” value (LNCaP cells) was “negligible” and the “competitive inhibition of peptide to its corresponding phage at various concentrations” value (LNCaP cells; series of concentrations) was “does not affect the binding”.

For QPGHAILAQHPT, the “competitive inhibition of peptide to its corresponding phage” value (LNCaP cells) was “negligible”.

For SMAGEQISWALI, the “competitive inhibition of peptide to its corresponding phage” value (LNCaP cells) was “negligible”.

In the case of TGHLYPTRMEIQ, the “affinity to C4-2 cells compared to LNCaP cells” value [1] is reported as “less affinity” and the “competitive inhibition of peptide to its corresponding phage” value (LNCaP cells) is reported as “relatively weaker competitive inhibition”.

In the case of WQPDTAHHWATL, the IC50 (PSMA) is listed as 23 µM and the Kd [2] is listed as 23.6 µM.

In the case of YPTDWLWHGHNK, the “competitive inhibition of peptide to its corresponding phage” value (LNCaP cells) is reported as “negligible”.

With YVNSHSILGYTG the “competitive inhibition of peptide to its corresponding phage” value (LNCaP cells) was “relatively weaker competitive inhibition”.
